Tested on: A549 cells
Test: Toxicity test with Cellomics Array Scan
Format: cell-based, human
Experimental: The toxicity of the zwitterionic QDQRs-17a and QDQRs-17b was tested using the Cellomics Array Scan. For the toxicity tests, A549 cells were plated on a 96-well plate and incubated with QDQR solutions in a concentration range of 25 to 500 nM. Cadmium chloride, which was used in a concentration range from 25 to 1,000 μM, was used as the positive control. The increase in the cadmium chloride concentration by a factor of 1,000 is due to the fact that a single QDQR of the tested samples contains about 8,200 cadmium atoms. Assuming that the totality of the nanoparticles dissolve and release the cadmium contained in them, the lowest concentration of 25 nM QDQRs used would correspond to a concentration of 205 μM cadmium chloride. After an incubation period of 16 hours, the cells were blended with a staining solution consisting of the cell nucleus dye Hoechst 33342 and the mitochondrial dye MitoTracker® Deep Red FM and then fixed with formaldehyde solution. The 96-well plates were then read out with the Cellomics Array Scan. A software was used to automatically determine the parameters number of cells, cell nucleus intensity and cell nucleus size using the intensity of the dye by Hoechst, and the transmembrane potential of the mitochondria on the basis of the mitochondrial dye. In addition, microscopic images of the cells were taken to control the number of cells and cell morphology.
For the toxicity tests, A549 cells were plated in culture medium on a 96-well plate (10,000 cells per well) and incubated overnight. When the medium had been sucked off, the samples to be tested (diluted with culture medium, 100 μL per well) were applied in different concentrations and incubated for 16 hours. The samples were then removed and the cells were mixed with 100 μL staining solution (final concentration: 75 nM MitoTracker® Deep Red and […] Hoechst 33342 in DMEM with 10% FCS) and incubated for a further 30 minutes. […] After 20 minutes, the fixing solution was sucked off and washed twice with DPBS before the samples were measured on the Cellomics Array Scan.

With `[Cl][Cd][Cl]` [cadmium chloride] the “morphological changes of the cells or cell nuclei (microscopic images)” value (16 hours incubation) was “the number of cells decreases noticeably and they get globular”, the “concentration with toxic effect on the cells” value (16 hours incubation, tested 25 to 1,000 μM) was at least 100 µM and the “number of cells per well, cell nucleus intensity and cell nucleus size” value (16 hours, 100 μM or more) was “decreases significantly”.

From US12019075B2, “Zwitterionic nanoparticles” (FRAUNHOFER-GESELLSCHAFT ZUR FOERDERUNG DER ANGEWANDTEN …, priority 2017, dated 2024)
